Where two headings read alike, the source gives them in different places.
Key:
[1] = tested on: Capan-1 (K-Ras G12V); assay: CellTiter-Glo cell viability assay, 5-day treatment; assay type: cell-based; conditions: Homo sapiens, CAPAN-1, 120 h, 5-day treatment; read-out: Capan-1 Cell Viability assay data (K-Ras G12V, IC50)
In short: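 Luminescence read-out after 5 days of compound exposure, with plates first brought to room temperature for roughly 30 minutes. Values are percent of averaged DMSO wells, fitted by four-parameter logistic regression.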

[2] = target: KRAS G12V (Homo sapiens, UniProt P01116+P62937, G12V); assay: Disruption of BRAF RBD interaction with Ras (FRET / MOA assay, with Cyclophilin A); assay type: biochemical
From the text: (§1) This protocol may also be executed substituting other Ras proteins or nucleotides.
(§2) The purpose of this biochemical assay was to measure the ability of test compounds to facilitate ternary complex formation between a nucleotide-loaded K-Ras isoform and Cyclophilin A; the resulting ternary complex disrupts binding to a BRAF^RBD construct, inhibiting K-Ras signaling through a RAF effector. Data is reported as IC50 values.
(§3) Compound was present in plate wells as a 10-point 3-fold dilution series starting at a final concentration of 30 μM. After incubation at 25° C. for 3 hours, a mixture of Anti-His Eu-W1024 and anti-GST allophycocyanin was then added to assay sample wells at final concentrations of 10 nM and 50 nM, respectively, and the reaction incubated for an additional 1.5 hours. […] Compounds that facilitate disruption of a K-Ras:RAF complex were identified as those eliciting a decrease in the TR-FRET ratio relative to DMSO control wells.
as §2, with “BRAF^RBDD” for “BRAF^RBD”

[3] = target: KRAS G12C (Homo sapiens, UniProt P01116+P62937, G12C); assay: as above; assay type: biochemical
From the text: as §1, §2, §3
as §2, with “BRAF^RBDD” for “BRAF^RBD”

[4] = target: KRAS G12D (Homo sapiens, UniProt P01116+P62937, G12D); assay: as above; assay type: biochemical
From the text: as §1, §2, §3
as §2, with “BRAF^RBDD” for “BRAF^RBD”

[5] = target: KRAS G12S (Homo sapiens, UniProt P01116+P62937, G12S); assay: as above; assay type: biochemical
From the text: as §1, §2, §3
as §2, with “BRAF^RBDD” for “BRAF^RBD”

[6] = target: KRAS G13C (Homo sapiens, UniProt P01116+P62937, G13C); assay: as above; assay type: biochemical
From the text: as §1, §2, §3
as §2, with “BRAF^RBDD” for “BRAF^RBD”

[7] = target: KRAS G13D (Homo sapiens, UniProt P01116+P62937, G13D); assay: as above; assay type: biochemical
From the text: as §1, §2, §3
as §2, with “BRAF^RBDD” for “BRAF^RBD”

[8] = target: KRAS WT (Homo sapiens, UniProt P01116+P62937); assay: as above; assay type: biochemical
From the text: as §1, §2, §3
as §2, with “BRAF^RBDD” for “BRAF^RBD”

[9] = target: NRAS G12C (Homo sapiens, UniProt P01111+P62937, G12C); assay: as above; assay type: biochemical
From the text: as §1, §2, §3
as §2, with “BRAF^RBDD” for “BRAF^RBD”

[10] = KRAS G12V, read-out: KRAS G12V FRET data IC50
[11] = read-out: KRAS G12C FRET data, IC50
[12] = read-out: KRAS G12D FRET data, IC50
[13] = read-out: KRAS G12S FRET data, IC50
[14] = read-out: KRAS G13C FRET data, IC50
[15] = KRAS G13D, read-out: KRAS G13D FRET data IC50
[16] = KRAS WT, read-out: KRAS WT FRET data IC50
[17] = NRAS G12C, read-out: NRAS G12C FRET data IC50
[18] = KRAS G12V FRET data IC50, KRAS G12V
[19] = KRAS G13D FRET data IC50, KRAS G13D
[20] = KRAS WT FRET data IC50, KRAS WT
[21] = NRAS G12C FRET data IC50, NRAS G12C

NRAS G12C, sequence (P01111 whole entry G12C): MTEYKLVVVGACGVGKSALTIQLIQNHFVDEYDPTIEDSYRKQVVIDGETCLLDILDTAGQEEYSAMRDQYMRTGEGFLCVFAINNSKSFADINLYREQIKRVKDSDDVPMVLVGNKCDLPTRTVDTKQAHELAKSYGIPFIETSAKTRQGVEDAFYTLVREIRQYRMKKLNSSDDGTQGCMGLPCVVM
NRAS G12C, sequence (P62937 whole entry): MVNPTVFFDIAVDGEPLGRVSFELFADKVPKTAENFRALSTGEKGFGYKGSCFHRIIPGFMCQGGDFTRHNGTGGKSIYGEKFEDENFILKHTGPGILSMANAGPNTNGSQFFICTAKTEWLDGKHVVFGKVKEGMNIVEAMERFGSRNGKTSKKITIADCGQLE
KRAS G12D, sequence (P01116 1-169 isoform P01116-2 G12D limits assumed): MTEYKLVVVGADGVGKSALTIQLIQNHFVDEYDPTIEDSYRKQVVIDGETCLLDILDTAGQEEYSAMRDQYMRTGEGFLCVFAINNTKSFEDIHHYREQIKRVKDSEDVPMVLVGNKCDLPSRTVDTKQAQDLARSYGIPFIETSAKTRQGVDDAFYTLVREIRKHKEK
KRAS G12D, sequence (P62937 whole entry): as the sequence (P62937 whole entry) above
KRAS G12C, sequence (P01116 1-169 isoform P01116-2 G12C): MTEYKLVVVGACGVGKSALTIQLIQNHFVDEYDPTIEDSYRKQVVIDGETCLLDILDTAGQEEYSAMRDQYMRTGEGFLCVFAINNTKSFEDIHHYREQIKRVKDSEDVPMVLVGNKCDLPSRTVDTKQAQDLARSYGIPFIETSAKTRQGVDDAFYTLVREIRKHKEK
KRAS G12C, sequence (P62937 whole entry): as the sequence (P62937 whole entry) above
KRAS G12V, sequence (P01116 1-169 isoform P01116-2 G12V limits assumed): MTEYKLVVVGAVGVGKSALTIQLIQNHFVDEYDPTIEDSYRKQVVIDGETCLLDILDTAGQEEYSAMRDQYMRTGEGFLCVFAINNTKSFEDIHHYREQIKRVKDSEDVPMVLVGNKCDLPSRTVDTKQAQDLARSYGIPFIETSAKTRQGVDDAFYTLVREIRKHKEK
KRAS G12V, sequence (P62937 whole entry): as the sequence (P62937 whole entry) above
KRAS G13C, sequence (P01116 1-169 isoform P01116-2 G13C): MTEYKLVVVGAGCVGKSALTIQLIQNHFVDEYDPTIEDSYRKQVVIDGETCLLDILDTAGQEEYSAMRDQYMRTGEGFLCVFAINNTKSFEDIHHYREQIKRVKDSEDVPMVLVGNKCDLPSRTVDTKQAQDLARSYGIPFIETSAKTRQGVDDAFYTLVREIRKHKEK
KRAS G13C, sequence (P62937 whole entry): as the sequence (P62937 whole entry) above
KRAS G13D, sequence (P01116 1-169 isoform P01116-2 G13D limits assumed): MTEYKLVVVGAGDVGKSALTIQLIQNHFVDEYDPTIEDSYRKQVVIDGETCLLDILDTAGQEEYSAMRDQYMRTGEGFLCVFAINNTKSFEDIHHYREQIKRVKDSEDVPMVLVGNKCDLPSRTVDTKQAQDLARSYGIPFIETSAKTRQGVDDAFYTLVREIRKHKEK
KRAS G13D, sequence (P62937 whole entry): as the sequence (P62937 whole entry) above
KRAS G12S, sequence (P01116 1-169 isoform P01116-2 G12S limits assumed): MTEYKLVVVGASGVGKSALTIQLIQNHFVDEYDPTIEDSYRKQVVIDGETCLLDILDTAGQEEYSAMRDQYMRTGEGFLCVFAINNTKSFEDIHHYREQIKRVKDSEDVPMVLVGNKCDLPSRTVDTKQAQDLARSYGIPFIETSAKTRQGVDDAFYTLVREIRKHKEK
KRAS G12S, sequence (P62937 whole entry): as the sequence (P62937 whole entry) above
KRAS WT, sequence (P01116 1-169 isoform P01116-2 limits assumed): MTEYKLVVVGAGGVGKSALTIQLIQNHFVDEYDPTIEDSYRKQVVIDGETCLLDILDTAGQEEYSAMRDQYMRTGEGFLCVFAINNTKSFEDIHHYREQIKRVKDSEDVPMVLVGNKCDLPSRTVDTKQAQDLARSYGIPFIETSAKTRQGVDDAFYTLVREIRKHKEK
KRAS WT, sequence (P62937 whole entry): as the sequence (P62937 whole entry) above

Structure (SMILES) | IC50 [2, 10] [nM] | IC50 [3, 11] [nM] | IC50 [4, 12] [µM] | IC50 [5, 13] [nM] | IC50 [6, 14] [nM] | IC50 [7, 15] [nM] | IC50 [8, 16] [nM] | IC50 [9, 17] [nM] | IC50 ([3]; KRAS G12C FRET data, IC50) [nM] | IC50 ([4]; KRAS G12D FRET data, IC50) [µM] | IC50 ([5]; KRAS G12S FRET data, IC50) [nM] | IC50 [2, 18] [nM] | IC50 ([6]; KRAS G13C FRET data, IC50) [nM] | IC50 [7, 19] [nM] | IC50 [8, 20] [nM] | IC50 [9, 21] [nM] | IC50 [1] [µM]
CCn1c(-c2cnccc2COC)c2c3cc(ccc31)-c1cc(O)cc(c1)C[C@H](NC(=O)[C@H](C(C)C)N(C)C(=O)[C@H](C)O)C(=O)N1CCC[C@H](N1)C(=O)OCC(C)(C)C2 [Example A93] |  |  |  |  |  |  |  |  | 100 to 1000 | 1 to 10 | 100 to 1000 | 100 to 1000 | 100 to 1000 | 100 to 1000 | 100 to 1000 | 100 to 1000 | 1 to 10
CCn1c(-c2cccnc2[C@H](C)OC)c2c3cc(ccc31)-c1cc(O)cc(c1)C[C@H](NC(=O)[C@@H]1C[C@H]1C)C(=O)N1CCC[C@H](N1)C(=O)OCC(C)(C)C2 [Example A183] | 1000 to 10000 | 100 to 1000 | > 10 | 1000 to 10000 | 100 to 1000 | 1000 to 10000 | 1000 to 10000 | 1000 to 10000 |  |  |  |  |  |  |  |  | 1 to 10
CCn1c(-c2cccnc2[C@H](C)OC)c2c3cc(ccc31)-c1cc(O)cc(c1)C[C@H](NC(=O)[C@@H](NC(C)=O)C(C)(C)OC)C(=O)N1CCC[C@H](N1)C(=O)OCC(C)(C)C2 (racemic) [Example A172] | > 10000 | > 10000 | > 10 | > 10000 | 1000 to 10000 | > 10000 | > 10000 | > 10000 |  |  |  |  |  |  |  |  | > 10

Now from value to compound, other results behind:

IC50 [2, 10] [nM] | IC50 [3, 11] [nM] | IC50 [4, 12] [µM] | IC50 [5, 13] [nM] | IC50 [6, 14] [nM] | IC50 [7, 15] [nM] | IC50 [8, 16] [nM] | IC50 [9, 17] [nM] | IC50 ([3]; KRAS G12C FRET data, IC50) [nM] | IC50 ([4]; KRAS G12D FRET data, IC50) [µM] | IC50 ([5]; KRAS G12S FRET data, IC50) [nM] | IC50 [2, 18] [nM] | IC50 ([6]; KRAS G13C FRET data, IC50) [nM] | IC50 [7, 19] [nM] | IC50 [8, 20] [nM] | IC50 [9, 21] [nM] | Structure (SMILES) | IC50 [1] [µM]
10 to 100 |  |  |  |  |  |  |  |  |  |  |  |  |  |  |  | CCn1c(-c2cccnc2[C@H](C)OC)c2c3cc(ccc31)-c1cc(O)cc(c1)C[C@H](NC(=O)[C@H](C(C)C)N(C)C(=O)C1(F)CC1)C(=O)N1CCC[C@H](N1)C(=O)OCC(C)(C)C2 [Example A165] | 0.01 to 0.1
1000 to 10000 | 1000 to 10000 | 1 to 10 | 1000 to 10000 | 1000 to 10000 | 1000 to 10000 | 1000 to 10000 | 1000 to 10000 |  |  |  |  |  |  |  |  | CCn1c(-c2cccnc2[C@H](C)OC)c2c3cc(ccc31)-c1csc(n1)C[C@H](NC(=O)[C@H](C(C)C)N(C)C(=O)[C@H]1CCN(C(=O)C(C)(C)N(C)C)C1)C(=O)N1CCC[C@H](N1)C(=O)OCC(C)(C)C2 [Example A113] | 1 to 10
> 10000 |  |  |  |  |  |  | > 10000 |  |  |  |  |  |  |  |  | CCn1c(-c2cccnc2[C@H](C)OC)c2c3cc(ccc31)-c1csc(n1)C[C@H](NC(=O)[C@H](C(C)C)N1CCC3(CN(C)C3)C1=O)C(=O)N1CCC[C@H](N1)C(=O)OCC(C)(C)C2 [Example A222] | > 10
1000 to 10000 | 1000 to 10000 | 1 to 10 | 1000 to 10000 | 1000 to 10000 | 1000 to 10000 | 1000 to 10000 | 1000 to 10000 |  |  |  |  |  |  |  |  | CCn1c(-c2cccnc2[C@H](C)OC)c2c3cc(ccc31)-c1cccc(c1)C[C@H](NC(=O)[C@H](C(C)C)N(C)C(=O)[C@H]1CCN(C(=O)C(C)(C)N(C)C)C1)C(=O)N1CCC[C@H](N1)C(=O)OCC(C)(C)C2 [Example A112] | 1 to 10
 |  |  |  |  |  |  |  | 100 to 1000 | 0.1 to 1 | 100 to 1000 | 1000 to 10000 | 100 to 1000 | 100 to 1000 | 100 to 1000 | 100 to 1000 | CCn1c(-c2cccnc2[C@H](C)OC)c2c3cc(ccc31)-c1cc(O)cc(c1)C[C@H](NC(=O)[C@H](C(C)C)N(C)C(=O)C1CCNCC1)C(=O)N1CCC[C@H](N1)C(=O)OCC(C)(C)C2 [Example A122] | > 10

— US20230233569A1 (Revolution Medicines, Inc., priority 2020, published 2023)
